Data: article PMC9804470, “A Formylglycine‐Peptide for the Site‐Directed Identification of Phosphotyrosine‐Mimetic Fragments” (Chemistry (Weinheim an Der Bergstrasse, Germany), 2022)
Entries after “also recorded” stand apart in the source; their conditions may differ. Like-named read-outs stand apart in the source and are kept apart here.

Tests used:
SHP2 [1] = biological target: T1, SHP2 (Homo sapiens, UniProt Q06124); assay: Determination of KI using Michaelis-Menten kinetics; type: biochemical
T1 construct: catalytic domain of human SHP2 (amino acids 225–541); His10 (N); made in house; host or cells: E. coli B21 (DE3)
T1 sequence (Q06124 225-541): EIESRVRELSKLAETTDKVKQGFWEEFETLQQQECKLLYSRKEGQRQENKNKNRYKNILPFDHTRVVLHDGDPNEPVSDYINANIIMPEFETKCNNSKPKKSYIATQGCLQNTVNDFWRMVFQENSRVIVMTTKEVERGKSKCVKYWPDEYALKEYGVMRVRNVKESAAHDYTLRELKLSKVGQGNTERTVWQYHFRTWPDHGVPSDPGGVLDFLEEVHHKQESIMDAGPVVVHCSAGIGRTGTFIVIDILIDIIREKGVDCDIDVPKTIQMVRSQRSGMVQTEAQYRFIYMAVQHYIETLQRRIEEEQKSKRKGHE
Description: (§1) Enzyme activity assays of SHP2 and PTP1B: The catalytic activity of SHP2 catalytic domain and PTP1B were monitored using the fluorogenic substrate DiFMUP (6,8‐difluoro‐4‐methylumbelliferyl phosphate). Phosphatase reactions were performed at room temperature in 384‐well black plate, clear flat bottom, low flange, non‐binding surface (Corning, Cat# 3766) using a final volume of 20 μL and the following assay buffer conditions: 50 mM MOPS, pH=6.5, 200 mM NaCl, 50 μM TCEP, 0.03 % Tween‐20 (freshly added prior to each measurement). Test compounds were dissolved in DMSO or buffer at stock concentrations of 50, 20 or 10 mM and serially diluted. Enzyme (5 nM PTP1B or 2.5 nM SHP2 catalytic domain) and different concentrations of the tested compounds were incubated in buffer for 30–60 min at room temperature. Measurements were performed with a final concentration of 2.5 % DMSO unless stated otherwise at 37 °C and were performed in triplicate. Enzymatic reactions were started by adding DiFMUP (Invitrogen, cat# D6567) concentrations matching the experimentally determined KM values of the enzymes of 67 μM (PTP1B) or 72 μM (SHP2). Samples were excited at a wavelength of 360 nm and emitted fluorescence was recorded at 460 for 10 min using a microplate reader (infinite M1000 Pro, Tecan). Initial slope of fluorescence was determined in triplicate and IC50 values were calculated with GraphPad Prism 5. Determined IC50 values were converted into the corresponding KI values applying the Cheng Prusoff equation KI =IC50 /(1+[S]/KM ).
Determination of KI values using Michaelis-Menten kinetics
The assays for the determination of KI values were performed as described under the same conditions as mentioned in the main paper. The initial velocities of the enzymatic reaction inhibited by compound 21 were determined using four different inhibitor concentrations (0, 75, 100 and 150 nM) and four different substrate concentrations (100, 50, 25 and 12.5 µM).
Fluorescence was monitored over 10 min, during which the increase in fluorescence was linear. Initial velocities were calculated and were plotted as a function of the substrate concentration. The inhibition constant KI was determined using Michaelis-Menten kinetics applying GraphPad Prism 9 (Supplementary Figure 31). The obtained data were fitted to three different inhibition models, namely competitive, uncompetitive, and non-competitive inhibition.
The best fit was obtained for the competitive inhibition mode, resulting in the highest correlation […]
Supplementary Figure 31. Michaelis-Menten plots of compound 21 using inhibitor […]
Table 2. Results of Michaelis-Menten plots for different modes of inhibition of compound 21 (competitive, uncompetitive and non-competitive inhibition).
Inhibition model Competitive Uncompetitive Non-competitive
(1 picture or pasted object on this page, not shown here)

[2] = biological target: T2, catalytic domain of human SHP2 (Homo sapiens, UniProt Q06124); assay: Enzyme activity assay of SHP2 catalytic domain with fluorogenic substrate DiFMUP; type: biochemical
T2 construct: catalytic domain of human SHP2 (amino acids 225–541); His10 (N); made in house; host or cells: E. coli B21 (DE3)
T2 sequence (Q06124 225-541): T1 sequence (Q06124 225-541)
Description: Enzyme activity assays of SHP2 and PTP1B: The catalytic activity of SHP2 catalytic domain and PTP1B were monitored using the fluorogenic substrate DiFMUP (6,8‐difluoro‐4‐methylumbelliferyl phosphate). Phosphatase reactions were performed at room temperature in 384‐well black plate, clear flat bottom, low flange, non‐binding surface (Corning, Cat# 3766) using a final volume of 20 μL and the following assay buffer conditions: 50 mM MOPS, pH=6.5, 200 mM NaCl, 50 μM TCEP, 0.03 % Tween‐20 (freshly added prior to each measurement). Test compounds were dissolved in DMSO or buffer at stock concentrations of 50, 20 or 10 mM and serially diluted. Enzyme (5 nM PTP1B or 2.5 nM SHP2 catalytic domain) and different concentrations of the tested compounds were incubated in buffer for 30–60 min at room temperature. […] Enzymatic reactions were started by adding DiFMUP (Invitrogen, cat# D6567) concentrations matching the experimentally determined KM values of the enzymes of 67 μM (PTP1B) or 72 μM (SHP2). Samples were excited at a wavelength of 360 nm and emitted fluorescence was recorded at 460 for 10 min using a microplate reader (infinite M1000 Pro, Tecan). Initial slope of fluorescence was determined in triplicate and IC50 values were calculated with GraphPad Prism 5. Determined IC50 values were converted into the corresponding KI values applying the Cheng Prusoff equation KI =IC50 /(1+[S]/KM ).

[3] = test system: HGF‐induced tyrosine phosphorylation of ERK 1/2 in HeLa cells; assay: Western blot of p-ERK in HGF-stimulated HeLa cells; type: cell-based; conditions: 1 h treatment
Description: Cellular experiments: HeLa cells were cultivated in DMEM buffer with 10 % FCS in 75 cm^2 cell culture flasks at 37 °C, 5 % CO2. At confluency of about 75 %, cells were seeded in a density of 250,000 cells/mL in 6‐well plates and incubated for 24 h. Subsequently, medium was removed and replaced by DMEM buffer with 0.1 % BSA (1 mL per well) and incubated for another 16 h. Hepatocyte growth factor (HGF, 20 ng/well) and test compounds in different final concentrations (1 μL, in DMSO) were added. Control wells received the same amount of DMSO (final concentration 0.1 %) or no addition. Plates were incubated for 1 h, then washed with cold PBS and shaken with lysis buffer (mPer reagent ThermoScientific # 78501 with 1 mM NaF, 2 mM Na3VO4, 25× protease inhibitor) for 5 min. Cell lysates were transferred to Eppendorf cups and centrifuged at 4 °C with 10,000 g for 10 min. […] The blot was incubated with anti‐phospo‐ERK as primary antibody (Cell Signaling # 9106, dilution 1 : 2000 in TBS‐Tween/ 2 % BSA) overnight at 4 °C, washed 3×5 min with TBS‐Tween, and incubated with anti‐mouse IgG‐hrp as secondary antibody (Santa Cruz # sc2031, 1 : 6000 in TBS‐ Tween/ 2 % BSA, RT, 1.5 h). The blot was again washed 3×5 min with TBS‐Tween and imaged with the ECL system (ThermoScientific # 34080) at Syngene PXi Imager. From the same lysis sample, under the same conditions, ERK 1/2 and β‐tubulin were blotted. For β‐tubulin, the antibody incubation time was adjusted to 2 h at RT.

PTP1B [4] = biological target: T3, PTP1B (Homo sapiens, UniProt P18031); assay: Dynamic ligation screening of nucleophilic fragments with formylglycine peptide 3, PTP1B; type: biochemical; conditions: 3 100 μM pre-incubated 5 min, fragment 200 μM, 30 min RT before DiFMUP, triplicates
T3 construct: catalytic domain of human PTP1B (amino acids 1–321); His7 (N, cleaved yes); made in house; host or cells: E. coli Rosetta (DE3)
T3 sequence (P18031 1-321): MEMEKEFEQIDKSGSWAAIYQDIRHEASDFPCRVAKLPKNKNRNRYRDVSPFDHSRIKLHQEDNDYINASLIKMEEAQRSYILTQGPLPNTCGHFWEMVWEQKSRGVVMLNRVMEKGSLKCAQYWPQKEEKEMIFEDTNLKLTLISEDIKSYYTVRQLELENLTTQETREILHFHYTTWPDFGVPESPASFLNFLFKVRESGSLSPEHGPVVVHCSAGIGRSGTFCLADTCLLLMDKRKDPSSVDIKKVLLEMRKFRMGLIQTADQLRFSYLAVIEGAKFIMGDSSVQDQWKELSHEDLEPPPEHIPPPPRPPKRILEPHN
Description: as §1
(§2) Dynamic ligation screening of nucleophilic fragments with 3: Under assay conditions described above, PTP1B or SHP2 were pre‐incubated with 3 (100 μM) for 5 min. Subsequently, (200 μM) of the respective fragments were added and the resulting mixtures were incubated for 30 min at RT, prior to DiFMUP addition.

SHP2 [5] = biological target: T1, SHP2; assay: Dynamic ligation screening of nucleophilic fragments with formylglycine peptide 3, SHP2; type: biochemical; conditions: 3 100 μM pre-incubated 5 min, fragment 200 μM, 30 min RT before DiFMUP, triplicates
Description: as §1, §2

PTP1B [6] = biological target: T3, PTP1B; assay: Apparent KI values of in situ ligation products of 3 (time- and concentration-dependent assay); type: biochemical; conditions: for Effect of fragment ligation with 3 on inhibition curves of PTP1B: inhibition at different concentrations, with and without 3 / fragment (Figure 5C, D)
Description: as §1
Subsequently, over the course of 60 mins (every 15 min), 2 equivalents of fragment F1 were added to each of the different concentrations of 3 at RT, prior to DiFMUP addition.
Subsequently, fragment F2 was added at three different concentrations (1 equiv, 2 equiv, and 4 equiv) and the resulting mixtures were incubated for 30 min at RT, prior to DiFMUP addition.

[7] = biological target: T4, catalytic domain of human PTP1B (Homo sapiens, UniProt P18031); assay: Enzyme activity assay of PTP1B with fluorogenic substrate DiFMUP; type: biochemical
T4 construct: catalytic domain of human PTP1B (amino acids 1–321); His7 (N, cleaved yes); made in house; host or cells: E. coli Rosetta (DE3)
T4 sequence (P18031 1-321): T3 sequence (P18031 1-321)
Description: Protein Expression and purification: DNA encoding the catalytic domain of human PTP1B (amino acids 1–321) was subcloned into the pQLinkH vector. The gene encoding the N‐terminal His7‐tagged protein was over‐expressed at 17 °C in E. coli Rosetta (DE3). […] The His7‐tag was cleaved with tobacco etch virus protease at 20 °C prior to the gel‐filtration step. The catalytic domain of human SHP2 (amino acids 225–541) was purified from E. coli B21 (DE3). The overexpressed protein was fused to an N‐terminal His10‐tag. Cells were harvested and resuspended in 25 mM Tris‐HCl (pH=7.5), 50 mM NaCl, 1 % (v/v) Triton X‐100, 10 % (v/v) glycerol, 1 mM DTT. After cell lysis, debris was removed by centrifugation at 12,000 rpm for 30 min. The supernatant was filtered prior to affinity purification with Ni‐NTA agarose (Qiagen). The slurry was washed with 50 mM Tris‐HCl (pH=8.0), 500 mM NaCl supplemented with 25 mM imidazole. Reasonably pure protein was eluted with 200–300 mM imidazole. The purification was completed by size‐exclusion chromatography with a Superdex 75 16/600 column (GE Healthcare) equilibrated with 20 mM HEPES‐NaOH (pH=7.5), 50 mM NaCl, 1 mM DTT.
as §1

[8] = hydrazine fragments alone, DiFMUP assay, Supporting Table 1

SMILES: O=C(O)Cc1ccc(N/N=C2\C(=O)N(c3ccc([N+](=O)[O-])cc3)N=C2c2ccc([N+](=O)[O-])cc2)cc1 [Compound 21, (Z)‐2‐(4‐(2‐(1,3‐Bis‐(4‐nitrophenyl)‐5‐oxo‐1,5‐dihydro‐4H‐pyrazol‐4‐ylidene)‐hydrazinyl)‐phenyl)‐acetic acid]
- Ki (SHP2 [1]; Michaelis-Menten kinetics at different substrate concentrations, competitive model, read-out: KI SHP2 (Table 2, footnote b) (converted)): 32 nM
- Mode of inhibition of SHP2 (SHP2 [1]; best fit among competitive, uncompetitive, non-competitive models): competitive inhibitor; also recorded: competitive mode of inhibition
- KI by Michaelis-Menten kinetics, uncompetitive model (SHP2 [1]; inhibitor 0, 75, 100, 150 nM, DiFMUP 100, 50, 25, 12.5 µM, R2 0.8637): 8.4 nM
- Ki (SHP2 [1]; inhibitor 0, 75, 100, 150 nM, DiFMUP 100, 50, 25, 12.5 µM, R2 0.8991, read-out: KI by Michaelis-Menten kinetics, non-competitive model): 46.5 nM
- Ki (SHP2 [1]; inhibitor 0, 75, 100, 150 nM, DiFMUP 100, 50, 25, 12.5 µM, best fit, R2 0.9007, read-out: KI by Michaelis-Menten kinetics, competitive model): 32 nM
- Ki ([2]; DiFMUP 72 μM (= KM), enzyme 1.5 nM, triplicate, from IC50 by Cheng-Prusoff (IC50/2), read-out: KI SHP2 (Table 2, footnote a)): 79 nM
- Effect on HGF‐induced tyrosine phosphorylation of ERK 1/2 ([3]; Western blot, DMSO control): decreased
- Concentration giving (complete) dephosphorylation of Erk / inhibition of Erk phosphorylation ([3]; HGF 20 ng/well, Western blot p-ERK): 6.25 µM

SMILES: Nc1ccc(CC(=O)O)cc1 [Compound F1, 4‐amino‐phenyl‐acetic acid]
- Enhancement of inhibition of PTP1B by fragment in combination with peptide 3 (fragment ligation assay) (PTP1B [4]): over‐additive inhibition; also recorded: super‐additive inhibition
- Enhancement of inhibition of SHP2 by fragment in combination with peptide 3 (fragment ligation assay) (SHP2 [5]): over‐additive inhibition; also recorded: super‐additive inhibition

SMILES: Nc1ccc(NS(=O)(=O)C(F)(F)F)cc1 [Compound F2, N‐(4‐aminophenyl)‐trifluoromethyl sulfonamide]
- Enhancement of inhibition of PTP1B by fragment in combination with peptide 3 (fragment ligation assay) (PTP1B [4]): over‐additive inhibition; also recorded: pronounced activity; also recorded: super‐additive inhibition
- Ki (PTP1B [6]; PTP1B, ligation product of F2 with 3, read-out: apparent KI of fragment ligation product with 3 (legend of Figure 5B)): 17000 nM
- Enhancement of inhibition of SHP2 by fragment in combination with peptide 3 (fragment ligation assay) (SHP2 [5]): over‐additive inhibition; also recorded: super‐additive inhibition

SMILES: NNc1ccc(S(=O)(=O)O)cc1 [Compound F3, 4‐hydrazo‐phenylsulfonic acid]
- Effect of fragment ligation with 3 on inhibition curves of PTP1B (PTP1B [6]): did not enforce inhibition of PTP1B further
- IC50 [7, 8]: 34000 nM
- Ki ([7]; read-out: KI PTP1B): 17000 nM
- IC50 [2, 8]: > 250000 nM

SMILES: Nc1ccc(OCC(=O)O)cc1 [Compound F4, 4‐amino‐phenoxyacetic acid]
- Enhancement of inhibition of PTP1B by fragment in combination with peptide 3 (fragment ligation assay) (PTP1B [4]): over‐additive inhibition; also recorded: super‐additive inhibition
- Enhancement of inhibition of SHP2 by fragment in combination with peptide 3 (fragment ligation assay) (SHP2 [5]): over‐additive inhibition; also recorded: super‐additive inhibition

SMILES: Nc1ccc(S(F)(F)(F)(F)F)cc1 [Compound F7, 4‐amino‐phenyl‐pentafluorosulfate]
- Enhancement of inhibition of PTP1B by fragment in combination with peptide 3 (fragment ligation assay) (PTP1B [4]): inactive
- Effect of fragment ligation with 3 on inhibition curves of PTP1B (PTP1B [6]): identical inhibition curves
